Measurements taken from patent US11548883B2, “Compounds as autotaxin inhibitors and pharmaceutical compositions comprising the same” (LegoChem Biosciences, Inc., priority 2017, dated 2023).
Where a name gives a salt, the structure may show the parent alone.

Biological target: human ENPP2 (Homo sapiens (Human), UniProt Q13822)
Test: Inhibitory activity on human ENPP2 (FS-3 assay)
Type: biochemical
Conditions: human ENPP2, FS-3 substrate, Table 2
Description: Two-fold dilution of each test compound solution (10 μM, 100% dimethyl sulfoxide) is carried out on 96-well V bottom plate (Costar 3363). After ten-fold dilution of each the test compound solution (100% dimethyl sulfoxide) with deionized distilled water, 10 μL of the diluted each compound solution (10% dimethyl sulfoxide) was aliquoted to a black flat bottom 96-well plate (Costar 3915).

Row | IC50 | Compound
1 | 2.2 nM | O=C(Cn1cc(-c2cnc(NC3Cc4ccccc4C3)nc2)c(CN2CCC(F)(F)CC2)n1)N1CCc2[nH]nnc2C1 [Compound 85, 2-{3-[(4,4-difluoropiperidin-1-yl)methyl]-4-{2-[(2,3-dihydro-1H-inden-2-yl)amino]pyrimidin-5-yl}-1H-pyrazol-1-yl}-1-{1H,4H,5H,6H,7H-[1,2,3]triazolo[4,5-c]pyridin-5-yl}ethan-1-one hydrofluoride]
2 | 6.5 nM | O=C(Cn1cc(-c2cnc(NC3Cc4ccccc4C3)nc2)c(C(=O)N2CCNCC2)n1)N1CCc2[nH]nnc2C1 [Compound 77, 2-(4-{2-[(2,3-dihydro-1H-inden-2-yl)amino]pyrimidin-5-yl}-3-(piperazine-1-carbonyl)-1H-pyrazol-1-yl)-1-{1H,4H,5H,6H,7H-[1,2,3]triazolo[4,5-c]pyridin-5-yl}ethan-1-one hydrochloride]
3 | 6.1 nM | O=C(Cn1cc(-c2cnc(NC3Cc4ccccc4C3)nc2)c(OCCN2CCNCC2)n1)N1CCc2[nH]nnc2C1 [Compound 67, 2-(4-{2-[(2,3-dihydro-1H-inden-2-yl)amino]pyrimidin-5-yl}-3-[2-(piperazin-1-yl)ethoxy]-1H-pyrazol-1-yl)-1-{1H,4H,5H,6H,7H-[1,2,3]triazolo[4,5-c]pyridin-5-yl}ethan-1-one]
4 | 2 nM | O=C(Cn1cc(-c2cnc(NC3Cc4ccccc4C3)nc2)cn1)Nc1ccc2[nH]c(=O)oc2c1 [Compound 57, 2-(4-{2-[(2,3-dihydro-1H-inden-2-yl)amino]pyrimidin-5-yl}-1H-pyrazol-1-yl)-N-(2-oxo-2,3-dihydro-1,3-benzoxazol-6-yl)acetamide]
5 | 15.8 nM | CCc1cc(-c2cnc(NC3Cc4ccccc4C3)nc2)nn1CC(=O)N1CCc2[nH]nnc2C1 [Compound 54, 2-(3-{2-[(2,3-dihydro-1H-inden-2-yl)amino]pyrimidin-5-yl}-5-ethyl-1H-pyrazol-1-yl)-1-{1H,4H,5H,6H,7H-[1,2,3]triazolo[4,5-c]pyridin-5-yl}ethan-1-one]
6 | 3.6 nM | O=C(Cn1cc(-c2cnc(NC3Cc4ccccc4C3)nc2)c(OC2CCN(CC(F)F)CC2)n1)N1CCc2[nH]nnc2C1 [Compound 71, 2-(3-{[1-(2,2-difluoroethyl)piperidin-4-yl]oxy}-4-{2-[(2,3-dihydro-1H-inden-2-yl)amino]pyrimidin-5-yl}-1H-pyrazol-1-yl)-1-{1H,4H,5H,6H,7H-[1,2,3]triazolo[4,5-c]pyridin-5-yl}ethan-1-one]
7 | 11.1 nM | O=C(Cn1cc(-c2cnc(NC3Cc4ccccc4C3)cn2)cn1)N1CCc2[nH]nnc2C1 [Compound 59, 2-(4-{5-[(2,3-dihydro-1H-inden-2-yl)amino]pyrazin-2-yl}-1H-pyrazol-1-yl)-1-{1H,4H,5H,6H,7H-[1,2,3]triazolo[4,5-c]pyridin-5-yl}ethan-1-one]
8 | 3 nM | O=C(Cn1cc(-c2cnc(NC3Cc4ccccc4C3)nc2)c(OCc2ccccc2)n1)N1CCOCC1 [Compound 64, 2-[3-(benzyloxy)-4-{2-[(2,3-dihydro-1H-inden-2-yl)amino]pyrimidin-5-yl}-1H-pyrazol-1-yl]-1-(morpholin-4-yl)ethan-1-one]
9 | 4 nM | O=C(Cn1cc(-c2cnc(NC3Cc4ccccc4C3)nc2)c(OC2CCNCC2)n1)N1CCc2[nH]nnc2C1 [Compound 69, 2-(4-{2-[(2,3-dihydro-1H-inden-2-yl)amino]pyrimidin-5-yl}-3-(piperidin-4-yloxy)-1H-pyrazol-1-yl)-1-{1H,4H,5H,6H,7H-[1,2,3]triazolo[4,5-c]pyridin-5-yl}ethan-1-one]

Row | Compound | IC50
10 | O=C(O)C1=CCN(C(=O)Cc2nnc(-c3cnc(NC4Cc5ccccc5C4)nc3)o2)CC1 [Compound 48, 1-[2-(5-{2-[(2,3-dihydro-1H-inden-2-yl)amino]pyrimidin-5-yl}-1,3,4-oxadiazol-2-yl)acetyl]-1,2,3,6-tetrahydropyridine-4-carboxylic Acid] | 13.3 nM
